Bridge positions count the residues as written; N and C are the ends. Square brackets hold non-standard residues; d marks the D form. Peptide text beside a SMILES is read from it.

This is an account of results in patent US7662784B2, “Method for decreasing body weight using a somatostatin receptor agonist” (Ipsen Pharma, S.A.S., priority 1997, dated 2010).

The test system of data set [1] is fatty (fa/fa) Zucker rats. Nature of the data set: Weight loss study, chronic (6 day) treatment in obese animal model.
The test system of data set [2] is Obese (fa/fa) Zucker rats. Nature of the data set: Secondary endpoints: plasma glycerol and triglycerides after 6-day treatment, oral glucose challenge. Format: in vivo, rat. The method, then: Obese (fa/fa) Zucker rats were treated as in example 1 above. On the last day of treatment (day 6), food was removed at 5:00 p.m., and the rats were fasted overnight. At 9:00 a.m. the next day, the animals were subjected to a glucose challenge, given as 0.8 gram/kg of glucose orally. Periodic 400 μl of blood samples were taken from the tail vein (Peterson, R. G., ILAR News, 32:16-19 (1990)) 60 min. and 30 min. before and at 30, 60, 90, and 120 min. after the administration of the glucose challenge (0.8 gram/kg orally). Aprotinin (Traysylol, Bayer UK, Hayward's Health, W. Sussex, U.K. and heparin (Sigma Chemical Co., Poole, Dorset, U.K.) were added to the blood samples to a final concentration of 400 KIU/ml and 100 units/ml, respectively. Plasma fractions were prepared from these samples by centrifugation at 4000×G in a microfuge, for the estimation of triglycerides and glycerol. Samples were then stored at −80° C. until assayed.
Plasma glycerol and triglycerides were determined using the Sigma Enzymatic (Tinder) calorimetric assay kit (Cat #337-B, Sigma Chemical Co., Poole, Dorset, U.K.) and measuring absorbance at 540 nm in a spectrophotometer.

Where [3] appears, read: 3 mg/kg s.c. twice a day for six days, fatty Zucker rats.
The mark [4] stands for this setting: after six days at 3 mg/kg s.c. twice a day, samples 30 and 60 minutes before the oral glucose challenge.
Where [5] appears, read: throughout the 2-hour test period after oral glucose challenge (0.8 gram/kg).

As for `C[C@@H](O)[C@@H]1NC(=O)[C@H](CCCCN)NC(=O)[C@@H](Cc2c[nH]c3ccccc23)NC(=O)[C@H](Cc2ccccc2)NC(=O)[C@H](Cc2ccccc2)NC(=O)[C@@H](N)CSSC[C@@H](C(N)=O)NC(=O)[C@H](Cc2ccccc2)NC1=O` [BIM-23268, H-Cys-Phe-Phe-D-Trp-Lys-Thr-Phe-Cys-NH2] (H-CFF[dW]KTFC-NH2; disulfide 1-8), the “amount of food consumed over the entire treatment period versus control” value in data set [1] (3 mg/kg s.c. twice a day for six days) was “no difference”. For the same compound, in data set [1] (setting [3]), the “body weight gain versus control” value is listed as “lower” and the “toxic effect / appearance of treated group” value is reported as “appeared healthy”. In data set [1] (3 mg/kg s.c. twice a day, 6-day treatment, control 26.0), this compound came in with an average food consumption of 25.9 g/rat/day. The “treated group's mean weight after six days” value in data set [1] (male fatty Zucker rats, 3 mg/kg s.c. twice a day for six days, control 418.89) was determined as 413.6. The “treated group's mean weight at the start of the trial” value in data set [1] (male fatty Zucker rats, before 3 mg/kg s.c. twice a day, control 414.09) is on record as 413.6. Besides, the reducing hypertriglyceridemia result in data set [2] (6-day treatment period at the prescribed dose (3 mg/kg s.c. twice a day)) is given as “effective in reducing hypertriglyceridemia”. Besides, in data set [2] (setting [4]), the plasma glycerol result is “significantly lowered” and the plasma triglycerides entry is “significantly lowered”. For the same compound, in data set [2] (setting [5]), the plasma glycerol result is listed as “significantly lower” and the plasma triglycerides result is given as “significantly lower”.
